In brackets after ≈: the same amount, converted by molar mass.
How the values were obtained:
[1] = system: PC3 cells expressing MAN2A1-FER; assay: Killing of MAN2A1-FER expressing PC3 cells by kinase inhibitors; assay type: cell-based, human; settings: for cell death: PC3 transformed with pCDNA4-MAN2A1-FER-FLAG/pCDNA6, MAN2A1-FER expressing, Crisotinib low dosage 24 hours; for specific killing of MAN2A1-FER expressing cells (FIG. 23): expression induced with 5 μg/mL tetracycline
[2] = system: PC3 cells not expressing MAN2A1-FER (Tet−); assay: Killing of PC3 cells not expressing MAN2A1-FER (Tet−) by kinase inhibitors; assay type: cell-based, human; settings: same treatment, cells not expressing the fusion protein (Tet−)
Experimental: FIG. 23. […] Prostate cancer cell line PC3 was transformed with pCDNA4-MAN2A1-FER-FLAG/pCDNA6. Expression of MAN2A1-FER was induced with 5 μg/mL tetracycline. Cells not treated with tetracycline nor any drug were used as background controls.
The second approach is to target EGFR activation by EGFR inhibitors. These include erlotinib, cetuximab, […], canertinib and […]. Many of these drugs were FDA approved and is widely used in a variety of human solid tumors. To interrogate the effectiveness of EGFR activation interruption in treating prostate cancer, we treated MAN2A1-FER transformed PC3 cells with canertinib.

[3] = system: DU145 cells containing TMEM135-CCDC67 breakpoint (DU145 + pCMV-BP); assay: FACS analysis of apoptotic cells (Annexin V), DU145 with breakpoint; assay type: cell-based; settings: DU145 with breakpoint infected with both adenoviruses
Experimental: (§1) FIG. 31A-B. Treatment with nucleotide analogue ganciclovir kills cancer cells expressing EGFP-tk. (A) PC3 or DU145 cells containing the TMEM135-CCDC67 fusion gene were infected with pAD5-Cas9^D10A-gRNA^TMEM135int13-gRNA^CCDC67int9 and pAD-TMEM135int13-EGFP-tk-CCDC67int9. These cells were then incubated with various concentrations of ganciclovir for 24 hours. Cell deaths were then quantified with phycoerythrin labeled Annexin V through flow cytometer. PC3 or DU145 cells harboring no TMEM135-CCDC67 breakpoint were used as controls. (B) Representative sample of cell death induced by ganciclovir on cells infected with pAD5-Cas9^D10A-gRNA^TMEM135int13-gRNA^CCDC67int9 and pAD-TMEM135int13-EGFP-tk-CCDC67int9, and treated with 5 μg/ml ganciclovir. PC3 or DU145 cells harboring no TMEM135-CCDC67 breakpoint were used as controls. Apoptosis was indicated by Annexin V staining.
(§2) Fluorescence activated cell sorting (FACS) analysis of apoptotic cells. The assays were previously described.^8-16 Briefly, the cells treated with pAD5-Cas9^D10A-gRNA^TMEM135int13-gRNA^CCDC67int9/pAD-TMEM135int13-EGFP-tk-CDC67int9, and various concentrations of ganciclovir were trypsinized and washed twice with cold PBS. […] The fluorescence stained cells were analyzed at the fluorescence emission at 533 nm (FL2). […] For each acquisition, 10,000 to 20,000 cells were sorted based on the fluorescence color of the cells. […]

[4] = system: PC3 cells harboring no TMEM135-CCDC67 breakpoint (PC3 + pCMV); assay: FACS analysis of apoptotic cells (Annexin V), PC3 without breakpoint; assay type: cell-based, human; settings: PC3, equally infected, ganciclovir up to 100 μg/ml
Experimental: as §1, §2

[5] = system: PC3 cells containing TMEM135-CCDC67 breakpoint; assay: Ganciclovir cell death after co-transfection of TK donor DNA and nickase-gRNA vector, breakpoint cells; assay type: cell-based, human
Experimental: (§3) FIG. 28A-B. Genetic therapy targeting at TMEM135-CCDC67 genome breakpoint.
(§4) The technique described above was applied to cells having the TMEM135-CCDC67 breakpoint. Since none of the fusion genes identified so far was present in prostate cancer cell lines, a TMEM135-CCDC67 genome breakpoint was created that is identical to the prostate cancer sample were analyzed. The expression of the TMEM135-CCDC67 breakpoint was driven by a CMV promoter. Subsequently, a donor DNA was constructed that encompassed HSV-1 TK and the splicing sites of TMEM135 exon 14. When this donor DNA was co-transfected with a vector that expresses gRNA targeting at the TMEM135-CCDC67 breakpoint into PC3 cells containing this genome breakpoint, integration of TK into the genome was identified (FIG. 28A). […] This is remarkable in considering only 5-10% transfection efficiency using conventional liposome method. […] In light of this promising result, both TMEM135-CCDC67-TK cassette and NicKase-gRNATMEM135-CCDC67-BrkPt DNA are now in the process of packaging into Adenovirus. We will infect the recombinant virus into these cells in the future experiments. This will dramatically improve the delivery efficiency in the subsequent animal study and probably human.

[6] = system: PC3 cells without TMEM135-CCDC67 breakpoint; assay: Ganciclovir cell death after co-transfection of TK donor DNA and nickase-gRNA vector, cells without breakpoint; assay type: cell-based, human; settings: same treatment
Experimental: as §3, §4

[7] = system: DU145 cells harboring no TMEM135-CCDC67 breakpoint (DU145 + pCMV); assay: FACS analysis of apoptotic cells (Annexin V), DU145 without breakpoint; assay type: cell-based; settings: DU145, equally infected, ganciclovir up to 100 μg/ml
Experimental: as §1, §2

[8] = system: PC3 cells containing TMEM135-CCDC67 breakpoint (PC3 + pCMV-BP); assay: FACS analysis of apoptotic cells (Annexin V), PC3 with breakpoint; assay type: cell-based, human; settings: PC3 with breakpoint infected with both adenoviruses
Experimental: as §1, §2

NIH3T3 cells = assay: Ebselen cell growth inhibition, NIH3T3; assay type: cell-based; settings: Mus musculus
Description: (§5) FIG. 26. […] Untransformed RWPE1, NIH3T3 cells and SLC45A2-AMACR transformed PC3 cells treated with (PC3/SLAM tet+) or without tetracycline (PC3/SLAM tet−) were applied with indicated concentration of Ebselen. Cell growths relative to unapplied controls were examined.
(§6) Therapeutic targeting at SLC45A2-AMACR using racemase inhibitor. To investigate whether targeting SLC45A2-AMACR is a viable approach to treat prostate cancer, we chose 2 approaches: 1) To intercept SLC45A2-AMACR/SHIP2-Akt pathway with small molecules; and 2) to block the ectopic racemase activity of SLC45A2-AMACR with ebselen or trifluoro-ibuprofen. […] This is probably due to Pten negative status of PC3 cells such that Akt pathway is fully activated regardless the presence of SLC45A2-AMACR. On the other hand, when we applied ebselen, the potent inhibitor of racemase of AMACR, to SLC45A2-AMACR expressing PC3 cells, 5 fold higher sensitivity of cell growth inhibition was found for PC3 cells transformed with pCDNA4-SLC45A2-AMACR-FLAG/pCDNA6 over the controls.

RWPE1 cells = assay: Ebselen cell growth inhibition, RWPE1; assay type: cell-based; settings: Homo sapiens, RWPE-1
Description: as §5, §6

[9] = system: SLC45A2-AMACR transformed PC3 cells treated with tetracycline (PC3/SLAM tet+); assay: Ebselen cell growth inhibition, PC3/SLAM tet+; assay type: cell-based, human
Description: as §5, §6

[10] = system: SLC45A2-AMACR transformed PC3 cells without tetracycline (PC3/SLAM tet−); assay: Ebselen cell growth inhibition, PC3/SLAM tet−; assay type: cell-based; settings: Homo sapiens, PC-3
Description: as §5, §6

C=CC(=O)Nc1cc2c(Nc3ccc(F)c(Cl)c3)ncnc2cc1OCCCN1CCOCC1 [canertinib]
cell death [1]: 34%
specific killing of MAN2A1-FER expressing cells (FIG. 23) [1]: specifically kills cells expressing MAN2A1-FER
killing of cells that do not express MAN2A1-FER [2]: minimal

C[C@@H](Oc1cc(-c2cnn(C3CCNCC3)c2)cnc1N)c1c(Cl)ccc(F)c1Cl [Crisotinib]
cell death [1]: 31%
lowering of cancer killing EC50 by expression of MAN2A1-FER ([1]; dosage effect analysis, expressing vs not expressing): ~100 fold
specific killing of MAN2A1-FER expressing cells (FIG. 23) [1]: specifically kills cells expressing MAN2A1-FER
killing of cells that do not express MAN2A1-FER [2]: hardly killed

Nc1nc2c(ncn2COC(CO)CO)c(=O)[nH]1 [ganciclovir, 9-(1,3-dihydroxy-2-propoxymethyl)guanine]
ganciclovir concentration at which killing was at the peak [3]: 5 µg/mL
EC50 ([3]; Homo sapiens, DU-145, 24 hours, read-out: ganciclovir concentration at which killing reached 50% of its maximal level): 0.075 µg/mL (≈ 0.294 µM)
cell deaths in cells containing no breakpoint [4]: No significant cell deaths
increase of cell death ([5]; PC3 with breakpoint co-transfected with donor DNA and gRNA vector, liposome method): 8 fold
specific killing of breakpoint containing cells (FIG. 28B) ([5]; transfected with pTMEM135-CCDC67-TK-GFP and pNicKase-RFP-gRNA-TMEM135-CCDC67-BrkPt): specific killing
cell death [6]: minimal cell death
cell deaths in cells containing no breakpoint [7]: No significant cell deaths
EC50 ([8]; Homo sapiens, PC-3, 24 hours, read-out: ganciclovir concentration at which killing reached 50% of its maximal level): 0.075 µg/mL (≈ 0.294 µM)
ganciclovir concentration at which killing was at the peak [8]: 5 µg/mL

O=c1c2ccccc2[se]n1-c1ccccc1 [Ebselen, ebselen]
IC50 (NIH3T3 cells): > 300 µM
IC50 (RWPE1 cells): > 300 µM
IC50 ([9]; Homo sapiens, PC-3, PC3/SLAM tet+): 37 µM
higher sensitivity of cell growth inhibition over the controls ([9]; PC3 transformed with pCDNA4-SLC45A2-AMACR-FLAG/pCDNA6 vs controls): 5 fold
IC50 [10]: 173 µM

Cn1cnc2c(F)c(Nc3ccc(Br)cc3Cl)c(C(=O)NOCCO)cc21 [AZD6244]
differential killing effect (MAN2A1-FER expressing vs not) ([1]; MEK interception, data not shown): largely moderated and vanished

— US10308960B2, “Methods for treating cells containing fusion genes” (University of Pittsburgh—of the Commonwealth System of …, priority 2014, dated 2019)
